Among the test systems are OVCAR-4 ovarian; BT-549 breast; COLO 205 colon; MCF7 breast; DU-145 prostate; PC-3 prostate; HCT-15 colon; SF-295 CNS; CAKI-1 renal; HCC-2998 colon.
Holding throughout (assay): NCI tumour cell line growth inhibition, 48 h

Structures are written as SMILES.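 Method: 48-hour compound exposure of cells in 96-well plates, five concentrations, linear interpolation of endpoints. TGI is the concentration that stops growth completely.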

Regarding `CN(C)CCCn1c(Cn2nc3ccccc3n2)nc2cc(C(F)(F)F)ccc21`, the TGI was above 100 µM with OVCAR-4 ovarian; above 100 µM in the assay on BT-549 breast; 28.6 µM in the assay on COLO 205 colon; 64.7 µM in the assay with MCF7 breast; above 100 µM in the assay with DU-145 prostate; above 100 µM with PC-3 prostate. The TGI in the assay with HCT-15 colon is above 100 µM; in the assay with SF-295 CNS, above 100 µM; with CAKI-1 renal, above 100 µM; with HCC-2998 colon, 21.2 µM.
Regarding `COc1ccc2c(c1)/c(=C/C#N)c1c3ccccc3[n+](C)n21`, the TGI is 22.9 µM in the assay on OVCAR-4 ovarian; 26.1 µM with BT-549 breast; 8.33 µM in the assay with COLO 205 colon; above 55.9 µM in the assay on MCF7 breast; 8.59 µM in the assay with DU-145 prostate; 11.7 µM in the assay on PC-3 prostate. Also, the TGI in the assay with HCT-15 colon stood at 59.8 µM; in the assay on SF-295 CNS, 42.1 µM; in the assay on CAKI-1 renal, 47.3 µM; in the assay on HCC-2998 colon, 6.83 µM.
Turning to `CSc1ccc2c(c1)c(CCN)c(C)n2Cc1ccccc1Cl`, the TGI in the assay on OVCAR-4 ovarian came to 3.29 µM; with BT-549 breast it was 33.5 µM; with COLO 205 colon it was 2.99 µM; in the assay with MCF7 breast, 3.11 µM; in the assay with DU-145 prostate, 3.04 µM; in the assay on PC-3 prostate it was 2.86 µM. In addition, the TGI in the assay on HCT-15 colon is 4.45 µM; with SF-295 CNS, 3.26 µM; in the assay on CAKI-1 renal it was 4.1 µM; in the assay with HCC-2998 colon, 2.04 µM.
With `O=S(=O)(c1ccccc1)c1ccc(-c2nc(-c3ccc4c(c3)Sc3ccccc3S4)cs2)cc1`, the TGI is above 100 µM in the assay on OVCAR-4 ovarian; 91.7 µM in the assay with BT-549 breast; above 100 µM in the assay with COLO 205 colon; above 100 µM in the assay on MCF7 breast; above 100 µM with DU-145 prostate; above 100 µM in the assay with PC-3 prostate. In addition, the TGI in the assay on HCT-15 colon is above 100 µM; with SF-295 CNS, 47.4 µM; in the assay on CAKI-1 renal, above 100 µM; in the assay on HCC-2998 colon, above 100 µM.
On to `O=c1c2c3c(sc2nc2n1NC=NN2)CCCC3`, for which the TGI is 34.1 µM in the assay with OVCAR-4 ovarian; 31.8 µM in the assay on BT-549 breast; 55.3 µM in the assay on COLO 205 colon; above 54.2 µM in the assay with MCF7 breast; above 90.4 µM in the assay with DU-145 prostate; above 56.7 µM with PC-3 prostate. Besides, the TGI in the assay on HCT-15 colon came to 37.5 µM; in the assay on SF-295 CNS it was 30.2 µM; in the assay on CAKI-1 renal it was 33.8 µM; with HCC-2998 colon, 51.7 µM.
For `COc1ccccc1C(=O)OCC1CCCN2CCCCC12` (stereo not given), the TGI with OVCAR-4 ovarian is above 100 µM; in the assay on BT-549 breast, 54.6 µM; in the assay with COLO 205 colon, above 100 µM; with MCF7 breast it was above 100 µM; in the assay with DU-145 prostate it was above 100 µM; in the assay with PC-3 prostate it was above 100 µM. Also, the TGI in the assay with HCT-15 colon is above 100 µM; in the assay on SF-295 CNS it was above 100 µM; in the assay on CAKI-1 renal, above 100 µM; in the assay with HCC-2998 colon, 42.2 µM.
`COc1ccc(Nc2nc(N)c(C(=O)c3ccc(Cl)cc3)s2)cc1`: the TGI in the assay with OVCAR-4 ovarian was 2.65 µM; in the assay on BT-549 breast, above 73.6 µM; in the assay on COLO 205 colon, 0.117 µM; in the assay with MCF7 breast, above 32.9 µM; in the assay on DU-145 prostate, 0.0558 µM; in the assay with PC-3 prostate it was 6.61 µM. Besides, the TGI worked out at 5.49 µM in the assay on HCT-15 colon, 15.1 µM in the assay on SF-295 CNS, 13.4 µM with CAKI-1 renal and 3.47 µM in the assay on HCC-2998 colon.
Regarding `Nc1ccn(C2CCC(COP(=O)(O)OCC(O)COP(=O)(O)OCC3OC(n4cc(F)c(=O)[nH]c4=O)CC3O)O2)c(=O)n1` (stereo not given), the TGI with OVCAR-4 ovarian, in the assay on BT-549 breast, in the assay on COLO 205 colon, with MCF7 breast, in the assay with DU-145 prostate and in the assay on PC-3 prostate was above 100 µM each time. The TGI in the assay on HCT-15 colon, in the assay on SF-295 CNS, in the assay on CAKI-1 renal and with HCC-2998 colon was above 100 µM in each case.
Take `Cn1cc2c3ccccc3nc-2c2ccccc21`: the TGI in the assay with OVCAR-4 ovarian stood at 5.25 µM; in the assay on BT-549 breast, 14.7 µM; in the assay with COLO 205 colon, 3.07 µM; in the assay on MCF7 breast, 10 µM; in the assay with DU-145 prostate, 5.76 µM; with PC-3 prostate it was 5.78 µM. For the same compound, the TGI was determined as 4.94 µM in the assay with HCT-15 colon, 10.4 µM in the assay on SF-295 CNS, 7.79 µM with CAKI-1 renal and 3.04 µM in the assay with HCC-2998 colon.
As to `C/C(=N\NC(N)=S)c1nc2ncccc2[nH]1`, the TGI with OVCAR-4 ovarian was above 100 µM; with BT-549 breast, above 96.7 µM; in the assay on COLO 205 colon, above 100 µM; with MCF7 breast, above 100 µM; with DU-145 prostate, above 100 µM; in the assay with PC-3 prostate, above 100 µM. Also, the TGI in the assay on HCT-15 colon, in the assay with SF-295 CNS, in the assay on CAKI-1 renal and in the assay on HCC-2998 colon was above 100 µM each time.
Consider `CCN(C(=O)N[C@H](C(=O)N[C@@H](CSC)C(=O)N[C@@H](C)C(=O)OC)C(C)C)c1ccccc1`, for which the TGI came out at 47.4 µM in the assay on OVCAR-4 ovarian; 32.5 µM with BT-549 breast; 32.4 µM with COLO 205 colon; 31.8 µM in the assay on MCF7 breast; 31.2 µM in the assay on DU-145 prostate; 31.6 µM in the assay on PC-3 prostate. In addition, the TGI with HCT-15 colon amounted to 36.2 µM; with SF-295 CNS, 36.7 µM; in the assay with CAKI-1 renal, 36.3 µM; in the assay on HCC-2998 colon, 39.3 µM.
Regarding `COC(=O)c1ccccc1C1CN=NC12Cc1ccc3c(c1C2=O)CCC3` (stereo not given), the TGI in the assay with OVCAR-4 ovarian, in the assay with BT-549 breast, in the assay with COLO 205 colon, in the assay with MCF7 breast, with DU-145 prostate and in the assay on PC-3 prostate was above 100 µM throughout. The TGI in the assay with HCT-15 colon, with SF-295 CNS, with CAKI-1 renal and with HCC-2998 colon was above 100 µM in each case.
Regarding `CN(C)CC1CCC/C(=C\c2ccc(OC(=O)/C=C/c3ccc(Cl)cc3)cc2)C1=O` (stereo not given), the TGI in the assay on OVCAR-4 ovarian is 35.9 µM; in the assay with BT-549 breast it was 14.2 µM; in the assay with COLO 205 colon, 2.79 µM; with MCF7 breast, 4.95 µM; with DU-145 prostate, 25.5 µM; in the assay with PC-3 prostate, 11.7 µM. The TGI amounted to 6.91 µM with HCT-15 colon, 19.7 µM with SF-295 CNS, 5.12 µM in the assay on CAKI-1 renal and 13.1 µM in the assay with HCC-2998 colon.

The values are drawn from PubChem BioAssay (NCI).
